Where two headings read alike, the source gives them in different places.
Key:
H82 cells = assay: cells; format: cell-based; conditions: Homo sapiens
In short: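 H82 cells in RPMI1640 + 10% FBS exposed to compound (0.1% DMSO final) for 6 days at 37 °C, 5% CO2. Viability read by CellTiter-Glo ATP luminescence, normalised to DMSO and medium controls; IC50 from nonlinear regression of the dose–survival curve.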

AURKA = target: T1, AURKA (Homo sapiens, UniProt O14965); format: cell-based
T1 construct: endogenous in cells; host or cells: Jurkat cells
T1 sequence (O14965 1-403): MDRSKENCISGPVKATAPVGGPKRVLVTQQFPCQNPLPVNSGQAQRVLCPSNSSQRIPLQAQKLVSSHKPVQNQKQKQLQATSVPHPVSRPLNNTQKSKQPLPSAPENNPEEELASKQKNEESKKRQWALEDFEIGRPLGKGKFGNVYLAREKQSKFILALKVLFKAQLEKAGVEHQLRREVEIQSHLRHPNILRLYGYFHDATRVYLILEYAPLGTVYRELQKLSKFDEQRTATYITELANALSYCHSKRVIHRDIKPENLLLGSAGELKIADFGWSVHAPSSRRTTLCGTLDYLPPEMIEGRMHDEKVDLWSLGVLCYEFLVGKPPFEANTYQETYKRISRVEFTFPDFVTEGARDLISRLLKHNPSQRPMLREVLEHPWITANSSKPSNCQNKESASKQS
In short: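 Jurkat cells seeded at 1×10^6 cells/500 µL and treated with compound; lysates run on SDS-PAGE, blotted to nitrocellulose and probed overnight at 4°C for AURKA. Chemiluminescent or fluorescent band intensity fitted to a curve to give DC50 for protein degradation.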

[1] = NCI-H82, read-out: IC50 in H82 Cells
[2] = NCI-H82, H82 cells, 4000 cells/well, CellTiter-Glo, read-out: IC50 in H82 Cells
[3] = 100 nM compound, Jurkat cells, 24 h, Table 2
[4] = 1 µM compound, Jurkat cells, 24 h, Table 2

SMILES	IC50 (H82 cells; [1]) [nM]	Percentage of AURKA Degradation Induced by 100 nM Compound in Jurkat Cells (AURKA)	Percentage of AURKA Degradation Induced by 1 µM Compound in Jurkat Cells (AURKA)	IC50 (H82 cells; [2]) [nM]	Percentage of AURKA Degradation Induced by 100 nM Compound in Jurkat Cells (AURKA; [3])	Percentage of AURKA Degradation Induced by 1 µM Compound in Jurkat Cells (AURKA; [4])
O=C1CCN(c2ccc(N3CC(O)(CN4CCN(c5ccc(Nc6ncc7c(n6)-c6ccc(Cl)cc6C(c6c(F)cccc6F)=NC7)cc5)C(=O)C4)C3)nc2)C(=O)N1 [Compound A299]	< 1000	+++ (key: +: Degradation ≤ 30%; ++: 30% < Degradation ≤ 70%; +++: Degradation > 70%)	+++ (key: +: Degradation ≤ 30%; ++: 30% < Degradation ≤ 70%; +++: Degradation > 70%)			
O=C1CCN(c2ccc(N3CCC(O)(CN4CCN(c5ccc(Nc6ncc7c(n6)-c6ccc(Cl)cc6C(c6c(F)cccc6F)=NC7)cc5)C(=O)C4)CC3)nc2)C(=O)N1 [Compound A300]	< 1000	+++ (key: +: Degradation ≤ 30%; ++: 30% < Degradation ≤ 70%; +++: Degradation > 70%)	+++ (key: +: Degradation ≤ 30%; ++: 30% < Degradation ≤ 70%; +++: Degradation > 70%)			
CC(C1CCN(c2ccc(N3CCC(=O)NC3=O)cn2)CC1)N1CCN(C23CC(Nc4ncc5c(n4)-c4ccc(Cl)cc4C(c4c(F)cccc4F)=NC5)(C2)C3)C(=O)C1 (stereo not drawn) [Compound A302]				< 1000	+++ (Degradation > 70%)	+++ (Degradation > 70%)
CP(C)(=O)c1cc(Nc2ncc3c(n2)-c2ccc(Cl)cc2C(c2c(F)cccc2F)=NC3)ccc1N1CCN(C2CCN(c3ccc(N4CCC(=O)NC4=O)cn3)CC2)CC1=O [Compound A303]				< 1000	+++ (Degradation > 70%)	+++ (Degradation > 70%)
N#Cc1cc(N2CCN(C(=O)C3CCN(c4ccc(Nc5ncc6c(n5)-c5ccc(Cl)cc5C(c5c(F)cccc5F)=NC6)cc4)CC3)CC2)ccc1N1CCC(=O)NC1=O [Compound A304]				< 1000	+++ (Degradation > 70%)	+++ (Degradation > 70%)
N#Cc1ccc2c(c1)C(c1c(F)cccc1F)=NCc1cnc(Nc3ccc(N4CCN(C5CCN(c6ccc(N7CCC(=O)NC7=O)cn6)CC5)CC4=O)cc3)nc1-2 [Compound A305]				< 1000	+++ (Degradation > 70%)	+++ (Degradation > 70%)
O=C1CCN(c2ccc(N3CCC(N4CCN(C56CC(Nc7ncc8c(n7)-c7ccc(Cl)cc7C(c7c(F)cccc7F)=NC8)(C5)C6)C(=O)C4)CC3)nc2)C(=O)N1 [Compound A306]				< 1000	++ (30% < Degradation ≤ 70%)	+++ (Degradation > 70%)
O=C1CCN(c2ccc(N3CCN(C(=O)C4CN(c5ccc(Nc6ncc7c(n6)-c6ccc(Cl)cc6C(c6c(F)cccc6F)=NC7)cc5)CCO4)CC3)nc2)C(=O)N1 (stereo not drawn) [Compound A308]				< 1000	+++ (Degradation > 70%)	+++ (Degradation > 70%)
CN1CCN(c2ccc(N3CCC(=O)NC3=O)cn2)CC1C(=O)N1CCN(c2ccc(Nc3ncc4c(n3)-c3ccc(Cl)cc3C(c3c(F)cccc3F)=NC4)cc2)CC1 (stereo not drawn) [Compound A309]				< 1000	++ (30% < Degradation ≤ 70%)	++ (30% < Degradation ≤ 70%)
O=C1CCN(c2ccc(N3CCOC(CN4CCN(C56CC(Nc7ncc8c(n7)-c7ccc(Cl)cc7C(c7c(F)cccc7F)=NC8)(C5)C6)C(=O)C4)C3)nc2)C(=O)N1 (stereo not drawn) [Compound A311]				< 1000	+++ (Degradation > 70%)	+++ (Degradation > 70%)
CC1(C)CN(C23CC(Nc4ncc5c(n4)-c4ccc(Cl)cc4C(c4c(F)cccc4F)=NC5)(C2)C3)C(=O)CN1CC1CCN(c2ccc(N3CCC(=O)NC3=O)cn2)CC1 [Compound A316]	< 1000	++ (key: +: Degradation ≤ 30%; ++: 30% < Degradation ≤ 70%; +++: Degradation > 70%)	++ (key: +: Degradation ≤ 30%; ++: 30% < Degradation ≤ 70%; +++: Degradation > 70%)			
N#Cc1ccc2c(c1)C(c1c(F)cccc1F)=NCc1cnc(Nc3ccc(N4CC(F)(CN5CCN(c6ccc(N7CCC(=O)NC7=O)cn6)CC5)C4)cc3)nc1-2 [Compound A319]				< 1000	+++ (Degradation > 70%)	+++ (Degradation > 70%)

Source: EP4818168A1, “FUSED RING COMPOUND, PHARMACEUTICAL COMPOSITION THEREOF AND USE THEREOF” (priority 2023, dated 2025)
